We go through 2 compounds from patent US11584733B2, “Selective histone deacetylase inhibitors for the treatment of human disease” (Shuttle Pharmaceuticals, Inc., priority 2017, dated 2023).

For assay [1], the system named is MCF-7 breast cancer cells. In words: Cell Proliferation and Cytotoxicity Assay (CCK-8). It is filed as cell-based. To be noted: FIG. 15. The text has this:
Cell Counting Kit-8 (CCK-8) (Dojindo) was used to determine the cytotoxicity of cells. CCK-8 assay kit uses a water-soluble WST-8 tetrazolium salt. This tetrazolium salt produces a water-soluble formazan dye upon reduction in the presence of an electron mediator (dehydrogenase). When WST-8 is reduced by dehydrogenases in living cells an orange colored product (formazan) is produced that can be detected in a 96-well plate format. The amount of the formazan dye generated by dehydrogenases is directly proportional to the number of living cells.
For this assay the following materials were required:
1. Plate reader (450 nm filter);
5. Tissue Culture Media; and
6. Actively growing cells (75-80% confluency).
The following dilutions with cell media were made prior to performance of an assay: Test compound solutions were made in a range from nano-molar to micro-molar with a final DMSO concentration not exceeding 0.1% and a total volume (e.g., 300 ul) necessary to perform duplicates of 100 μl doses.
A Cell Proliferation and Cytotoxicity Assay was performed as follows:
1. Dispense 100 μl of cell suspension (5000 cells/well) in a 96-well plate equal to the number of treatments plus controls done in duplicate;
2. Allow seeded cells to plate for 24 hours in a humidified incubator (at 37° C., 5% CO2);
3. […]
7. Measure the absorbance at 450 nm using a micro-plate reader; and […]

Another assay has as its target Human recombinant HDAC1 (Homo sapiens, UniProt Q13547). In words: HDAC isomer assay, Fluor-de-Lys, HDAC1. It is filed as biochemical. The procedure: (§1) The HDAC isomer (HDAC1, 3, and 6) assays were performed as follows:
(§2) Materials: Human recombinant HDAC isomer (HDAC1, HDAC3, and HDAC6); Fluor-de-Lys HDAC substrates; 360 nm excitation 460 nm emission Plate Reader; Disposable pipettes; Pipet-aid; Pipette tips; Micro-pipetter; DMSO; Sterile micro-tubes and conical tubes; and Micro-centrifuge.
(§3) Test compounds and control preparation: All test compounds' stock solutions were made in 100% DMSO. Test compound dilutions were made in HDAC Assay buffer with a final concentration of DMSO less than or equal to 1%. Vehicle control was HDAC Assay buffer with 1% DMSO.
(§4) The reagents for the assay were prepared as follows:
(§5) 1. All kit components were defrosted and these, and all dilutions described below, were kept on ice until use. All undiluted kit components are stable for several hours on ice.
(§6) 2. A sufficient amount of HDAC source diluted in Assay Buffer (BML-KI143) was prepared to provide for the assays that were performed (# of wells×15 μl). A 30-fold dilution of the HeLa Extract means that 15p L contains 0.5 μl of the undiluted Extract, an appropriate amount to use per well.
(§7) 3. Dilution(s) of SAHA and/or Test Inhibitors were prepared in Assay Buffer (BML-KI143). […]
(§8) 6. Samples were read in a microtiter-plate reading fluorimeter capable of excitation at a wavelength in the range 350-380 nm and detection of emitted light in the range 440-460 nm.

For the next assay, the target named is Human recombinant HDAC3 (Homo sapiens, UniProt O15379). Nature of the assay: HDAC isomer assay, Fluor-de-Lys, HDAC3. Type of assay: biochemical. The procedure: as §1, §2, §3, §4, §5, §6, §7, §8
Sequence of Human recombinant HDAC3 (O15379 whole entry): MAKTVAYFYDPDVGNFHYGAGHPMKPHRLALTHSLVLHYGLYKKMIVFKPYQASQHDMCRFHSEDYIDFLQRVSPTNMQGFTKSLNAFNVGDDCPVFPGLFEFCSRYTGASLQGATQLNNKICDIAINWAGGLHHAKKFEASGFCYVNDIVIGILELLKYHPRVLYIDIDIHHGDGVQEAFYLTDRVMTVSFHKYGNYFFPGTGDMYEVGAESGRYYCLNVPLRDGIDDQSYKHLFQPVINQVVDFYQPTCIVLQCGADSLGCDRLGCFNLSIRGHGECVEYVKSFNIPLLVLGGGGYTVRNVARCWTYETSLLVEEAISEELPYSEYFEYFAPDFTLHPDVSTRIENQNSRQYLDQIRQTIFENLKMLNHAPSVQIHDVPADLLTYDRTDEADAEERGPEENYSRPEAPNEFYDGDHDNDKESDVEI
Sequence of Human recombinant HDAC3 (Q9Y618 395-489 partner limits assumed): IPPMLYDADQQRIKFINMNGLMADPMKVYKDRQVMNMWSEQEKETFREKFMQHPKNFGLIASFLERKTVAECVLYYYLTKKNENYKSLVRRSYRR

Sequence of Human recombinant HDAC1 (Q13547 whole entry): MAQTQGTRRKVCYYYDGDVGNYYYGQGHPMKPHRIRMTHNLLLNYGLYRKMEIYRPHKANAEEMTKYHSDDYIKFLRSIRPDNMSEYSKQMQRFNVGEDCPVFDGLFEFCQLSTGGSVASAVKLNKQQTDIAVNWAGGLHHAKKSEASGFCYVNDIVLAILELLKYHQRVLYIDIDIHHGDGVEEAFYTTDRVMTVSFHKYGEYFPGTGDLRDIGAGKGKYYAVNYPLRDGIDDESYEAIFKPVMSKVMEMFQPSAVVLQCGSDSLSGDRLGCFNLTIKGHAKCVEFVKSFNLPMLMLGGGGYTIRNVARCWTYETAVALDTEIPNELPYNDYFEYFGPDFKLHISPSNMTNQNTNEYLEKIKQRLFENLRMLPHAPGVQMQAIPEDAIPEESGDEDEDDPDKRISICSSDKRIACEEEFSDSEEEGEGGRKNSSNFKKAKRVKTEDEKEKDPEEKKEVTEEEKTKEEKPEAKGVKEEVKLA

In the case of `O=C(CCCCCCC(=O)NC1CCC(=O)NC1=O)NO` (stereo not drawn) [SP-2-59, N^1-(2,6-dioxopiperidin-3-yl)-N^8-hydroxyoctanediamide], in assay [1] (Homo sapiens, MCF7, 48 hours incubation, read-out: EC50 against MCF-7 breast cancer cells), the EC50 (in general, the concentration needed to bring the measured effect to its halfway point) turned out to be 5.03 µM. The compound also registered an MCF-7 cells killed in assay [1] (at about 10 μM) of 78%.

For the compound `O=C(CCCCCCC(=O)Nc1cccc2c1CN(C1CCC(=O)NC1=O)C2=O)NO` (stereo not drawn) [SP-2-93, N^1-(2-(2,6-dioxopiperidin-3-yl)-1-oxoisoindolin-4-yl)-N^8-hydroxyoctanediamide], the EC50 was 1.54 µM on Human recombinant HDAC1 (Example 4, FIG. 9) and 3.07 µM on Human recombinant HDAC3 (Example 4, FIG. 10). For the same compound, the IC50 (usually the concentration needed to halve the response being measured) is 1.54 µM on Human recombinant HDAC1 (Example 6, FIG. 18, 2 mg/mL formulation in 5% DMSO/40% PEG 400/55% PBS, read-out: IC50 against HDAC1 protein) and 3.07 µM at Human recombinant HDAC3 (Example 6, FIG. 18, 2 mg/mL formulation in 5% DMSO/40% PEG 400/55% PBS, read-out: IC50 against HDAC3 protein).
